Test results reported in ChEMBL document CHEMBL3875196, “Novel pyrazolo[1,5-a]pyridines with improved aqueous solubility as p110α-selective PI3 kinase inhibitors” (Bioorg Med Chem Lett, 2017).

Key:
PI3K p110 beta/p85 alpha = PI3K p110 beta/p85 alpha (Homo sapiens, UniProt P42338); assay: Inhibition of recombinant human p110beta/N-terminal His-tagged human p85alpha expressed in baculovirus infected sf cells using L-alpha-phosphatidylinositol as substrate after 1 hr in presence of [gamma33]-ATP by thin layer chromatographic analysis
[1] = Inhibition of recombinant mouse p110alpha/N-terminal His-tagged human p85alpha expressed in baculovirus infected Sf21 cells using L-alpha-phosphatidylinositol as substrate after 1 hr in presence of [gamma33]-ATP by thin layer chromatographic analysis
[2] = target: T1, Phosphatidylinositol 4,5-bisphosphate 3-kinase catalytic subunit delta isoform (Homo sapiens, UniProt O00329); assay: Inhibition of p110delta (unknown origin) using L-alpha phosphatidylinositol as substrate after 1 hr in presence of [gamma33]-ATP by thin layer chromatographic analysis
T1 sequence (O00329 whole entry): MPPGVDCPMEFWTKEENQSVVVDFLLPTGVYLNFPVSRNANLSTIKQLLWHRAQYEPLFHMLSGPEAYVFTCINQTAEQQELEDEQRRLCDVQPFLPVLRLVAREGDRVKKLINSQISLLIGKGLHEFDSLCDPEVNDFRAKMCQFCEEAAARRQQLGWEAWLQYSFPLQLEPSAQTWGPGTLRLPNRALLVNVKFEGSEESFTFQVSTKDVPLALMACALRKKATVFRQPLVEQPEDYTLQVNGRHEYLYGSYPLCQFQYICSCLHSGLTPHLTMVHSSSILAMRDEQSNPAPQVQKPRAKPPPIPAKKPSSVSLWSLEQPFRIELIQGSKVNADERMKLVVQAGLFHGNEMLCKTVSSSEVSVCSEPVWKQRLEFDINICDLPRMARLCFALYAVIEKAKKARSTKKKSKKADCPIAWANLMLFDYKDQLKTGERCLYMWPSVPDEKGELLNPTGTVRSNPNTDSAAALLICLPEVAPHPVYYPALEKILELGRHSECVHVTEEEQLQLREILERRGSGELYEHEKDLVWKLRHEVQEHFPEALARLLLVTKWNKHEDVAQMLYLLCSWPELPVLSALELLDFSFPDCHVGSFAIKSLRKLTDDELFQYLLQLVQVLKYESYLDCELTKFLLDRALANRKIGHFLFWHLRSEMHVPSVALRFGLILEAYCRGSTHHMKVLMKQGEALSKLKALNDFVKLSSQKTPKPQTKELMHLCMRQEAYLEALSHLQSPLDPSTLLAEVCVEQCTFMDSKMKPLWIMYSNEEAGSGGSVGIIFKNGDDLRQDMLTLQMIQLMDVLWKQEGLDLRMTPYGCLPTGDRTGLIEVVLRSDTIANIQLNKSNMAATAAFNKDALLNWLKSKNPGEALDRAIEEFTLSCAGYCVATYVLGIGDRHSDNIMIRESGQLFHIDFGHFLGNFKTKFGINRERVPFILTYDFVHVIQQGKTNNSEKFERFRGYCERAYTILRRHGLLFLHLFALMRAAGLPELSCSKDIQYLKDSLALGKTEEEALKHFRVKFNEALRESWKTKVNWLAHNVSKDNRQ

[3] = Antiproliferative activity against wild type p110alpha expressing human NZOV9 cells after 5 days by [3H]-thymidine incorporation assay; type: functional, cell-based
[4] = Antiproliferative activity against wild type p110alpha expressing human NZB5 cells after 5 days by [3H]-thymidine incorporation assay; type: functional, cell-based

Sequence of PI3K p110 beta/p85 alpha (P27986 whole entry): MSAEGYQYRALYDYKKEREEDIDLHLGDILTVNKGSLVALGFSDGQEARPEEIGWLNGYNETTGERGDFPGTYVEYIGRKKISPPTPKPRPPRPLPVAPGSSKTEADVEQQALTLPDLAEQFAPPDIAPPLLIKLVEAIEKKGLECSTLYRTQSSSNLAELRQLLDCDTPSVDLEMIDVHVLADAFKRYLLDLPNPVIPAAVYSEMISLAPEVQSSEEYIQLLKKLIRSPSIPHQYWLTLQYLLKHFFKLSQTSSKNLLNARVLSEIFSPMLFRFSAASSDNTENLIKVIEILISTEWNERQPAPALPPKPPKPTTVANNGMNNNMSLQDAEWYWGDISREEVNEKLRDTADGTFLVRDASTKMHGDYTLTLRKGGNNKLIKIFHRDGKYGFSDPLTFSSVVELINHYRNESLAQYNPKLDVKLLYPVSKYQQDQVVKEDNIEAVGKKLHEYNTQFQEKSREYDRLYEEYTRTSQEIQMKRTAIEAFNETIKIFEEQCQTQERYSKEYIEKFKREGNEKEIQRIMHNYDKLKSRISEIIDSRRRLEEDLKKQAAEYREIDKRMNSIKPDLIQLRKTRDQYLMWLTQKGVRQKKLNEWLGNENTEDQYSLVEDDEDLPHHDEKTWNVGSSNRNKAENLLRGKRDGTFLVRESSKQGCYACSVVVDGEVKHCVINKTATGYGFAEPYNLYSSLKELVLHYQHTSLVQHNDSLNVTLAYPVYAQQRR
Sequence of PI3K p110 beta/p85 alpha (P42338 whole entry): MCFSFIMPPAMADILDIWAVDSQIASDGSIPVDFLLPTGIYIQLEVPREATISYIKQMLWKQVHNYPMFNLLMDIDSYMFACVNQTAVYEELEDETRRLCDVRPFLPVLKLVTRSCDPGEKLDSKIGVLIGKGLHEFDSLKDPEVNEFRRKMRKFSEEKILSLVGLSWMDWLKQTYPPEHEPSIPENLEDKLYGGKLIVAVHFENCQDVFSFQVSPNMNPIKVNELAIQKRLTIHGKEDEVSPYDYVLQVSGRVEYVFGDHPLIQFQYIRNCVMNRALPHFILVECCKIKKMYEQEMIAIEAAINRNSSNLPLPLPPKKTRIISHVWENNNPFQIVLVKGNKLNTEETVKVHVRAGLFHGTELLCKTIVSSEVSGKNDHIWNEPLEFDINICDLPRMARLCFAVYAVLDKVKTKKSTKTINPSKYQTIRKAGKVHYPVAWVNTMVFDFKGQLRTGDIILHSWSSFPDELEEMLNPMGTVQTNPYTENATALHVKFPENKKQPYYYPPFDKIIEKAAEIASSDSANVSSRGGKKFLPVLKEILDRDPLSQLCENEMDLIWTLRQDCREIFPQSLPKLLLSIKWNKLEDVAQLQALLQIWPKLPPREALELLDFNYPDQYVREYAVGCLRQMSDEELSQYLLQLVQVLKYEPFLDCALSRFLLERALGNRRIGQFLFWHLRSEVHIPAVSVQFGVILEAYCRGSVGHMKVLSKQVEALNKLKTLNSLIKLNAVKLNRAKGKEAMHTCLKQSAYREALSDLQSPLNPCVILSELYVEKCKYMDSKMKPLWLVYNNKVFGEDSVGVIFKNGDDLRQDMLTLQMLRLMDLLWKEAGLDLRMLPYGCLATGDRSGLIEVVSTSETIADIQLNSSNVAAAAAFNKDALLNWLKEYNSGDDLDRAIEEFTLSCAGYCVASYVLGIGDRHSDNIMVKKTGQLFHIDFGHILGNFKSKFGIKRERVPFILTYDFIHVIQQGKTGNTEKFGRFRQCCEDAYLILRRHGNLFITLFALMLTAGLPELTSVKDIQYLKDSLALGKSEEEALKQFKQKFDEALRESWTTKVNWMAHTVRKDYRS

Row | SMILES | IC50 (PI3K p110 beta/p85 alpha) [nM] | IC50 [1] [nM] | IC50 [2] [nM] | IC50 [3] [nM] | IC50 [4] [nM]
1 | C/C(=N\N(C)S(=O)(=O)c1cc([N+](=O)[O-])ccc1N(C)CCN(C)C)c1cnn2ccc(C#N)cc12 | > 1000 | 328 | 658 | 860 | 1800
2 | CN(/N=C/c1cnn2ccc(C#N)cc12)S(=O)(=O)c1cc([N+](=O)[O-])ccc1OCc1ccccn1 | 5600 | 6 | 950 | 660 | 1300
3 | C/C(=N\NS(=O)(=O)c1cc([N+](=O)[O-])ccc1N(C)CCN(C)C)c1cnn2ccc(Br)cc12 | > 1000 | 208 | > 1000 | 420 | 420
4 | CN(C)CCN(C)c1ccc([N+](=O)[O-])cc1C(=O)N(C)/N=C/c1cnn2ccc(C#N)cc12 | 230 | 580 | 68 | 3100 | 5600
5 | CN(/N=C/c1cnn2ccc(C#N)cc12)S(=O)(=O)c1cc(C#N)ccc1OCCN1CCOCC1 | > 1000 | 360 | 680 | 390 | 400
6 | CN(/N=C/c1cnn2ccc(C#N)cc12)S(=O)(=O)c1cc([N+](=O)[O-])ccc1OCCN1CCOCC1 | 220 | 21 | 94 | 410 | 440
7 | C/C(=N\NS(=O)(=O)c1cc([N+](=O)[O-])ccc1N(C)CCCN1CCOCC1)c1cnn2ccc(Br)cc12 |  | 448 |  | 3200 | 900
8 | CN(CCCN1CCOCC1)c1ccc([N+](=O)[O-])cc1S(=O)(=O)N(C)/N=C/c1cnn2ccc(C#N)cc12 | 510 | 26 | 170 | 560 | 71
9 | CN(C)CCN(C)c1ccc(C#N)cc1C(=O)N(C)/N=C/c1cnn2ccc(C#N)cc12 |  | 630 |  | 6200 | 2900
10 | C/C(=N\N(C)S(=O)(=O)c1cc([N+](=O)[O-])ccc1N(C)CCCN1CCOCC1)c1cnn2ccc(Br)cc12 |  | > 1000 |  | 3800 | 5100
11 | CN(/N=C/c1cnn2ccc(C#N)cc12)S(=O)(=O)c1cc([N+](=O)[O-])ccc1NCCN1CCOCC1 | > 1000 | 9 | 27 | > 20000 | 9400
12 | CN(CCc1ccncc1)c1ccc([N+](=O)[O-])cc1S(=O)(=O)N(C)/N=C/c1cnn2ccc(C#N)cc12 | 160 | 17 | 61 | 250 | < 2
13 | CN(/N=C/c1cnn2ccc(C#N)cc12)S(=O)(=O)c1cc([N+](=O)[O-])ccc1NCc1ccccn1 | > 1000 | 25 | 350 | 680 | 1100
14 | CN(C)CCN(C)c1ccc([N+](=O)[O-])cc1S(=O)(=O)N(C)/N=C/c1cnn2ccc(C#N)cc12 | 670 | 46 | 230 | 55 | 49
15 | Cc1ccc([N+](=O)[O-])cc1S(=O)(=O)N(CCO)/N=C/c1cnn2ccc(C#N)cc12 |  | 1.3 |  | 140 | 
16 | CN(C)CCNc1ccc([N+](=O)[O-])cc1S(=O)(=O)N(C)/N=C/c1cnn2ccc(C#N)cc12 | > 1000 | 430 | > 1000 | 640 | 750
17 | C/C(=N\N(C)S(=O)(=O)c1cc([N+](=O)[O-])ccc1N(C)CCCN1CCOCC1)c1cnn2ccc(C#N)cc12 |  | > 1000 |  | 2400 | 3300
18 | CN(CCCN1CCOCC1)c1ccc([N+](=O)[O-])cc1S(=O)(=O)N(C)/N=C/c1cnn2ccc(Br)cc12 |  | 370 |  | 670 | 94

Continued, in another order:

Row | IC50 (PI3K p110 beta/p85 alpha) [nM] | IC50 [1] [nM] | IC50 [2] [nM] | SMILES | IC50 [3] [nM] | IC50 [4] [nM]
19 | 2000 | 81 | 380 | CN(C)CCN(C)c1ccc(C#N)cc1S(=O)(=O)N(C)/N=C/c1cnn2ccc(C#N)cc12 | 47 | 55
20 |  | 40 |  | CN(Cc1ccccn1)c1ccc(C#N)cc1S(=O)(=O)N(C)/N=C/c1cnn2ccc(C#N)cc12 | 960 | 130
21 | 1000 | 65 | 280 | CNCCN(C)c1ccc([N+](=O)[O-])cc1S(=O)(=O)N(C)/N=C/c1cnn2ccc(C#N)cc12 | 11 | 24
22 | 180 | 9 | 55 | CN(CCc1cccnc1)c1ccc([N+](=O)[O-])cc1S(=O)(=O)N(C)/N=C/c1cnn2ccc(C#N)cc12 | 740 | < 2
23 | > 1000 | 180 |  | CN(Cc1ccccn1)c1ccc([N+](=O)[O-])cc1S(=O)(=O)N(C)/N=C/c1cnn2ccc(Br)cc12 | 580 | 93
24 | > 1000 | 75 | > 1000 | CN(C)CCOc1ccc([N+](=O)[O-])cc1S(=O)(=O)N(C)/N=C/c1cnn2ccc(C#N)cc12 | 170 | 100
25 | 410 | 9 | 60 | CN(CCc1ccccn1)c1ccc([N+](=O)[O-])cc1S(=O)(=O)N(C)/N=C/c1cnn2ccc(C#N)cc12 | 410 | 5
26 | 207 | 4.8 | 11 | C/C(=N\NS(=O)(=O)c1cc([N+](=O)[O-])ccc1N(C)Cc1ccccn1)c1cnn2ccc(C#N)cc12 | 3200 | 97
27 |  | 333 |  | C/C(=N\NS(=O)(=O)c1cc([N+](=O)[O-])ccc1N(C)CCCN1CCOCC1)c1cnn2ccc(C#N)cc12 | 9500 | 2400
28 | 1000 | 19 | 74 | CN(CCN1CCOCC1)c1ccc([N+](=O)[O-])cc1S(=O)(=O)N(C)/N=C/c1cnn2ccc(C#N)cc12 | 210 | 260
29 | 900 | 51 | 676 | C/C(=N\NS(=O)(=O)c1cc([N+](=O)[O-])ccc1N(C)CCN(C)C)c1cnn2ccc(C#N)cc12 | 2000 | 460
30 | 2900 | 51 | 350 | CN(/N=C/c1cnn2ccc(Br)cc12)S(=O)(=O)c1cc([N+](=O)[O-])ccc1OCCN1CCOCC1 | 550 | 270
31 | > 1000 | 50 | 470 | CN(CCN)c1ccc([N+](=O)[O-])cc1S(=O)(=O)N(C)/N=C/c1cnn2ccc(C#N)cc12 | 57 | 29
32 |  | 1040 |  | C/C(=N\N(C)S(=O)(=O)c1cc([N+](=O)[O-])ccc1N(C)Cc1ccccn1)c1cnn2ccc(Br)cc12 | 3000 | 2600
33 |  | > 1000 | > 1000 | C/C(=N\N(C)S(=O)(=O)c1cc([N+](=O)[O-])ccc1N(C)CCN(C)C)c1cnn2ccc(Br)cc12 | 930 | 3500
34 |  | 510 |  | CN(C)CCN(C)c1ccc([N+](=O)[O-])cc1S(=O)(=O)N(C)/N=C/c1cnn2ccc(Br)cc12 | < 2 | < 2
35 | > 1000 | 240 | 370 | CN(CCCN1CCOCC1)c1ccc(C#N)cc1S(=O)(=O)N(C)/N=C/c1cnn2ccc(C#N)cc12 | 360 | 21
